One block for each compound: values may come before it.
Key:
[1] = target: T1, Protein cereblon/Nicotinamide phosphoribosyltransferase (Homo sapiens, UniProt P43490+Q96SW2); assay: PROTAC activity at CRBN/NAMPT in human Jurkat cells assessed as induction of intracellular NAMPT degradation at 5 uM incubated for 24 hrs by Western blot analysis relative to control; format: cell-based
Target sequence in this assay (P43490 whole entry, looked up): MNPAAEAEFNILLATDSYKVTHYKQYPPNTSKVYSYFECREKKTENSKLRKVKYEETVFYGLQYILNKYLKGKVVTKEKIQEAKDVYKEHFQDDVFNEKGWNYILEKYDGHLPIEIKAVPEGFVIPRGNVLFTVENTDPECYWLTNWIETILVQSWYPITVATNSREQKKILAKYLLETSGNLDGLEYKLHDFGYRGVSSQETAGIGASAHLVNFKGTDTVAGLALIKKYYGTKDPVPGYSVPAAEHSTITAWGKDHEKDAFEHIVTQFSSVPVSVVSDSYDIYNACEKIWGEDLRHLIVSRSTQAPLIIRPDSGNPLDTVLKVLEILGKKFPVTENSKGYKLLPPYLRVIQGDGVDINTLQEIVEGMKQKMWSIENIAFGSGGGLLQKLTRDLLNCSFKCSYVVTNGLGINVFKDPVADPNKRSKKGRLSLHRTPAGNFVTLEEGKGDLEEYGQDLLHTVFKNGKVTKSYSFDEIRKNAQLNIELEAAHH
Target sequence in this assay (Q96SW2 whole entry, looked up): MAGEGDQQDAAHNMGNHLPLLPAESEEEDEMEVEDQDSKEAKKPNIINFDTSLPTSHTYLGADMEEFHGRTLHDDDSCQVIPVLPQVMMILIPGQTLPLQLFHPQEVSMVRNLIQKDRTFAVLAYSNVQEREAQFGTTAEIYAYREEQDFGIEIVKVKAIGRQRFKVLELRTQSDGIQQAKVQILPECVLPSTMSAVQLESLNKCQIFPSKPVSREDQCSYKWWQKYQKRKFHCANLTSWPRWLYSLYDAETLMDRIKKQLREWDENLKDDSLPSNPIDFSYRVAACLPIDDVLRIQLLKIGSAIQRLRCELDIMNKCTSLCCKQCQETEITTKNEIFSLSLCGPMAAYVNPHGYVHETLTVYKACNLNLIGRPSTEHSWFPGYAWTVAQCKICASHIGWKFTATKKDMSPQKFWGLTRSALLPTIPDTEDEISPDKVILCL

[2] = target: T1, Protein cereblon/Nicotinamide phosphoribosyltransferase; assay: PROTAC activity at CRBN/NAMPT in human Jurkat cells assessed as induction of intracellular NAMPT degradation incubated for 24 hrs by Western blot analysis; format: cell-based
Target sequence in this assay (P43490 whole entry): as the sequence (P43490 whole entry, looked up) above
Target sequence in this assay (Q96SW2 whole entry): as the sequence (Q96SW2 whole entry, looked up) above

[3] = target: T2, Nicotinamide phosphoribosyltransferase (Homo sapiens, UniProt P43490); assay: Activation of N-terminal His-tagged human NAMPT expressed in Escherichia coli BL 21 (DE3) using NAM and PRPP as substrates incubated for 15 mins in presence of ATP by fluorescence based spectrometer analysis
[4] = target: T2, Nicotinamide phosphoribosyltransferase; assay: Activation of recombinant NAMPT (unknown origin) expressed in Escherichia coli by fluorescence based spectrometer analysis
[5] = tested on: HepG2; assay: cells; conditions: Homo sapiens, HepG2, 48 h
[6] = tested on: HCT-116; assay: Anticancer activity against human HCT-116 cells assessed as reduction in cell growth; format: functional, cell-based
[7] = Anticancer activity against human NYH/VM cells assessed as reduction in cell growth; format: functional, cell-based
[8] = tested on: PC-3; assay: Anticancer activity against human PC-3 cells; format: functional, cell-based
[9] = target: Cytochrome P450 2C9 (Homo sapiens, UniProt P11712); assay: Inhibition of CYP2C9 (unknown origin); format: ADME
[10] = tested on: A2780; assay: cells; conditions: Homo sapiens, A2780, 72 h
[11] = target: Nicotinamide phosphoribosyltransferase (Mus musculus) (UniProt Q99KQ4); assay: Activation of N-terminal 6His-tagged mouse NAMPT assessed as increase in intracellular NAD+ level measured for 20 mins by fluorescence based spectrometer analysis relative to control; format: cell-based; conditions: filed as activator
[12] = target: Nicotinamide phosphoribosyltransferase (Mus musculus, UniProt Q99KQ4); assay: Activation of N-terminal 6His-tagged mouse NAMPT measured for 20 mins by fluorescence based spectrometer analysis
[13] = target: T2, Nicotinamide phosphoribosyltransferase; assay: Inhibition of NAMPT (unknown origin)

T2 sequence (P43490 whole entry): as the sequence (P43490 whole entry, looked up) above
Cytochrome P450 2C9, sequence (P11712 whole entry): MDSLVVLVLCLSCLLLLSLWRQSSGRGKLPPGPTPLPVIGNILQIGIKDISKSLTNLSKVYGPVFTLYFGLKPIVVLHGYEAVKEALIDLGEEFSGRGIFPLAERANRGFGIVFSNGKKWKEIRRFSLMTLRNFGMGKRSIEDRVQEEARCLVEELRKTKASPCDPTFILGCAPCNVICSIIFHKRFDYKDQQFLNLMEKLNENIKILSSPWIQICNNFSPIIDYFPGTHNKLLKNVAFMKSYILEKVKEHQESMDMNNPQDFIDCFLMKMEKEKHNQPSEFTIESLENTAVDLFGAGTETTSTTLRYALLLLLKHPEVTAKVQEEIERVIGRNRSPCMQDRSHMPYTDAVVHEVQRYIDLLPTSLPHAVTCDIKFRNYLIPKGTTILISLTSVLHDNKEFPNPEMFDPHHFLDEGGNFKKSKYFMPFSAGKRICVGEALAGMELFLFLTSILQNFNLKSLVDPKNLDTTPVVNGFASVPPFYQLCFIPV
Nicotinamide phosphoribosyltransferase (Mus musculus, UniProt Q99KQ4), sequence (Q99KQ4 whole entry): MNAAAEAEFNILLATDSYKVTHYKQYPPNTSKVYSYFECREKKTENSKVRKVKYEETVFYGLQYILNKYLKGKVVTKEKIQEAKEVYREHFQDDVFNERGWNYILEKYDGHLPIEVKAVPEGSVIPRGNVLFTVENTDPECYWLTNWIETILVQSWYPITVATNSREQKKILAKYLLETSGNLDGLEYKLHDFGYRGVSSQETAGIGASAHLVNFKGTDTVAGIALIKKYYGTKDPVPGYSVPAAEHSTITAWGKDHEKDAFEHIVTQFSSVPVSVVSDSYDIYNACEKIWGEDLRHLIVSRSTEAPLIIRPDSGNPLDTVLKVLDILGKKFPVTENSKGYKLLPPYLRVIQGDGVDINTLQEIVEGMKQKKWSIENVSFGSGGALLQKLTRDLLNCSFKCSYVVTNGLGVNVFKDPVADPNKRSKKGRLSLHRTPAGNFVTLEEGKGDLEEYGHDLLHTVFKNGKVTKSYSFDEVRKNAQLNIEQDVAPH
Nicotinamide phosphoribosyltransferase (Mus musculus), sequence (Q99KQ4 whole entry, looked up): as the sequence (Q99KQ4 whole entry) above

SMILES: O=C(/C=C/c1cccnc1)NCCCCC1CCN(C(=O)c2ccc(N3CCN(CCCCCC#Cc4cccc5c4CN(C4CCC(=O)NC4=O)C5=O)CC3)cc2)CC1 (stereo unspecified)
Emax [1]: 93.3%
DC50 [2]: < 1 nM

SMILES: O=C1C=C2Cc3cc(O)c(O)cc3C(c3ccccc3O)=C2C=C1O
EC50 [4]: 3500 nM

SMILES: N#C/N=C(\NCCCCCCC(=O)N(Cc1ccccc1)OC1CCCCC1)Nc1ccncc1
IC50 [6]: 0.4 nM
IC50 [7]: 0.02 nM
IC50 [8]: 0.3 nM

SMILES: O=S(=O)(c1ccc(CNc2ccc3cccn3c2)cc1)c1cc(F)cc(F)c1
IC50 [10]: 360 nM

SMILES: O=C(/C=C/c1cccnc1)NCCCCC1CCN(C(=O)c2ccc(N3CCN(CCCCCCC#Cc4cccc5c4CN(C4CCC(=O)NC4=O)C5=O)CC3)cc2)CC1 (stereo unspecified)
Emax [1]: 92.5%
DC50 [2]: < 1 nM

SMILES: Nc1ccc(/C=C/C(=O)NCc2cc3cc(-c4ccc(C(=O)N5CCC(F)(F)CC5)cc4)cc(-c4ccc(F)cc4)c3o2)cn1 [PADNARSERTIB]
IC50 [13]: 120 nM

Further lines, results first:

EC50 [3]: 180 nM
SMILES: CCN(CC)C(=O)c1noc2cc(NC(=O)NCc3cnco3)ccc12

IC50 [5]: 1950 nM
SMILES: CCCn1c(=O)c(-c2ccc(C(=O)NCc3cccnc3)cc2)nc2ccccc21

IC50 [9]: > 20000 nM
SMILES: O=C(NC[C@@H]1CCOC1)c1ccc(NC(=O)N2Cc3ccccc3C2)cc1

Emax [11]: 247%
EC50 [12]: 1490 nM
SMILES: O=C(NCc1ccc(CO)cc1)Nc1ccc(S(=O)(=O)N2CC3CCC(C2)O3)cc1

IC50 [5]: 1690 nM
SMILES: Cc1nc2ccccc2n(Cc2ccc(C(=O)NCc3cccnc3)cc2)c1=O

Source: ChEMBL document CHEMBL5550086, “Drug discovery targeting nicotinamide phosphoribosyltransferase (NAMPT): Updated progress and perspectives” (Bioorg Med Chem, 2024)
